Data as given in the supplement of paper PMC10307832.

Columns and labels:
Experiment in all cases: relative viability (nuclei count vs DMSO), 5 days (fraction); higher = more cells survive
Masitinib + AZD7762 = compound: Cc1ccc(NC(=O)c2ccc(CN3CCN(C)CC3)cc2)cc1Nc1nc(-c2cccnc2)cs1 [Masitinib] + NC(=O)Nc1cc(-c2cccc(F)c2)sc1C(=O)N[C@H]1CCCNC1 [AZD7762] (partner 0.2 µM)
Summary of the method: (§1)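 Five library-drug doses in √10 steps were combined with a fixed anchor-drug dose, or a single drug was given alone, by pin tool to lung cancer cell lines in 1536-well plates the day after seeding. Nuclei were stained and counted after 5 days. Relative viability is the nuclei count in treated wells over that in vehicle wells, taken as the median of duplicate plates.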

[1] = compound: CC1=CC(=CC=C1)NC2=NC(=CS2)C3=CC=NC=C3 + CC(C)C[C@H](NC(=O)[C@H](Cc1ccccc1)NC(=O)c1cnccn1)B(O)O [Bortezomib] (partner 0.002 µM)
Summary of the method: as §1

[2] = compound: CC1=CC(=CC=C1)NC2=NC(=CS2)C3=CC=NC=C3 + C[C@@H](Oc1cc(-c2cnn(C3CCNCC3)c2)cnc1N)c1c(Cl)ccc(F)c1Cl [Crizotinib] (partner 1 µM)
Summary of the method: as §1

Masitinib + Bortezomib = compound: Cc1ccc(NC(=O)c2ccc(CN3CCN(C)CC3)cc2)cc1Nc1nc(-c2cccnc2)cs1 [Masitinib] + CC(C)C[C@H](NC(=O)[C@H](Cc1ccccc1)NC(=O)c1cnccn1)B(O)O [Bortezomib] (partner 0.002 µM)
Summary of the method: as §1

Cell Line	relative viability (Masitinib + AZD7762; first compound 0.01 µM)	relative viability (Masitinib + AZD7762; first compound 0.03162 µM)	relative viability (Masitinib + AZD7762; first compound 0.1 µM)	relative viability (Masitinib + AZD7762; first compound 0.3162 µM)	relative viability (Masitinib + AZD7762; first compound 1 µM)	relative viability ([1]; first compound 0.253 µM)	relative viability ([1]; first compound 0.8 µM)	relative viability ([1]; first compound 2.53 µM)	relative viability ([1]; first compound 8 µM)	relative viability ([2]; first compound 0.253 µM)	relative viability ([2]; first compound 0.8 µM)	relative viability ([2]; first compound 2.53 µM)	relative viability ([2]; first compound 8 µM)	relative viability (Masitinib + Bortezomib; first compound 0.01 µM)	relative viability (Masitinib + Bortezomib; first compound 0.03162 µM)	relative viability (Masitinib + Bortezomib; first compound 0.1 µM)	relative viability (Masitinib + Bortezomib; first compound 0.3162 µM)	relative viability (Masitinib + Bortezomib; first compound 1 µM)	relative viability ([1]; first compound 0.08 µM)	relative viability ([2]; first compound 0.08 µM)
NCI-H2342	0.51	0.402	0.427	0.508	0.456															
NCI-H1793	0.473	0.348	0.434	0.283	0.202															
LU99A	0.462	0.293	0.312	0.319	0.273	1.09	1.15	1.06	1.05	0.546	0.717	0.52	0.718	1.03	1.12	1.02	1.21	1.07		
HCC-366		0.226	0.256	0.203	0.188	1.04	0.998	1.06	0.985	0.387	0.351	0.451	0.638	1.04	0.905	1.08	1.01	1.14	0.875	0.346
201T	0.516	0.7	0.528	0.64	0.573	1.06	1.08	0.888	0.919	0.993	0.955	1.06	0.869	0.918	1.09	0.99	1.09	1.07	1.05	1.01
HCC-827	0.224	0.198	0.192	0.165	0.213	0.903	0.946	0.974	0.882	0.91	0.854	0.89	0.856	0.842	1.04	1.03	1.09	1.08	1.05	0.945
NCI-H650	1.07	1.02	1.23	1.15	0.946	0.72	1.09		0.857	0.724	0.615		0.914	0.82	0.565	0.95	1.08	0.635	0.76	0.683
NCI-H2085	0.872	0.915	0.819	0.893	0.886	1.07	1.06	0.94	0.574	0.891	0.918	0.877	0.627	0.87	0.99	1.03	1.27	1.06	1.02	0.64
NCI-H596	1.24	0.978	1.07	1.1	0.973	1.08	0.893	0.853	0.74	0.929	0.814	0.943	0.971	1.09	1.06	1.2	1.01	1.23	0.845	0.875
SK-LU-1						1.07	0.884	1.3	1.19	1	0.636	0.912	0.938	1.2	1.13	1.28	1.24	0.899	0.905	0.751
A-427	0.775	0.657	0.689	0.744	0.559	1.03	0.895		0.84	0.944	0.751		0.692		0.977		0.99	1.06	0.84	0.851
NCI-H460	0.62	0.605	0.655	0.357	0.525	1.13	0.945	0.902	0.843	0.827	0.913	1	0.811	1.03	1	1.2	1.15	1.28	1.03	0.753
NCI-H1734	0.595	0.515	0.599	0.599	0.545	0.874	0.941	0.919	0.36	0.667	0.635	0.653	0.622	0.899	0.772	1.01	0.949	0.853	0.906	0.665
NCI-H1915		0.734		0.747	0.718	0.973	0.944	0.846	0.762	0.784	0.838	0.87	0.8		0.894	0.805	1.04	0.926	0.976	0.84
Calu-6						0.838	0.88	0.94	0.926	0.639	0.619	0.634	0.727	0.903	1.04	1.07	0.774	0.876	0.951	0.698
SW 1573						0.954	1.03	1.09	0.807	0.77	0.864	1.01	0.783	1.08	0.979	1.06	0.894	1	1.06	0.671
RERF-LC-KJ	0.781	0.934	0.949	0.906	0.92	1.07	0.786	0.813	0.7	0.705	0.556	0.59	0.512	0.939	1	1.07	1.09	1	0.963	0.741
EMC-BAC-2	0.862	1.01	1.03	1.05	1.01	1.04	1.01	0.99	0.927	0.7	0.717	0.643	0.729	0.942	1.04	0.974	1.15	1.05	0.982	0.642
LK-2	0.4	0.346	0.692	0.525	0.302					0.197	0.229		0.246							0.261
NCI-H2228						0.761	0.771	0.925	0.714	0.334	0.4	0.457	0.352	1.07	1.68	1.05	1.25	0.975	0.892	0.318
NCI-H322M	0.435	0.533	0.423	0.515	0.534	1.29	1.14	1.22	1.03	0.808	0.775	0.859	0.834	1.23	1.11	1.26	1.21	1.17	1.18	0.846
NCI-H1993	0.786	0.625	0.753	0.745	0.684	1.03	0.885	0.894	0.993	0.706	0.853	0.91	0.946	1.01		1.21	1.03	1.03	1	0.847

Cell Line	relative viability (Masitinib + AZD7762; first compound 0.01 µM)	relative viability (Masitinib + AZD7762; first compound 0.03162 µM)	relative viability (Masitinib + AZD7762; first compound 0.1 µM)	relative viability (Masitinib + AZD7762; first compound 0.3162 µM)	relative viability (Masitinib + AZD7762; first compound 1 µM)	relative viability ([1]; first compound 0.253 µM)	relative viability ([1]; first compound 0.8 µM)	relative viability ([1]; first compound 2.53 µM)	relative viability ([1]; first compound 8 µM)	relative viability ([2]; first compound 0.253 µM)	relative viability ([2]; first compound 0.8 µM)	relative viability ([2]; first compound 2.53 µM)	relative viability ([2]; first compound 8 µM)	relative viability (Masitinib + Bortezomib; first compound 0.01 µM)	relative viability (Masitinib + Bortezomib; first compound 0.03162 µM)	relative viability (Masitinib + Bortezomib; first compound 0.1 µM)	relative viability (Masitinib + Bortezomib; first compound 0.3162 µM)	relative viability (Masitinib + Bortezomib; first compound 1 µM)	relative viability ([1]; first compound 0.08 µM)	relative viability ([2]; first compound 0.08 µM)
NCI-H2170	0.714	0.887	1.01	0.828	0.685					1.13	1.09	1.09	1.05							1.11
LXF-289	0.996	1.18	1.18	1.14	1.02	0.959	0.988	0.978	0.823	0.785	0.827	0.836	0.751	0.876	0.97	0.966	1.06	0.992	0.952	0.775
NCI-H2405	0.741	0.778	0.738	0.692	0.634	0.87	0.87	0.774	0.903	0.774	0.615	0.874	0.808	0.929	0.878	0.879	0.944	0.948	0.929	0.684
NCI-H2023						0.873	0.959	0.949	0.543	0.525	0.507	0.758	0.37	0.734	0.967	0.79	0.862	0.879	0.899	0.603
COR-L23						0.913	0.779	0.924	0.595	0.483	0.487	0.646	0.583	0.924	0.806	1.11	1.26	0.972	1.01	0.553
NCI-H1299						0.983	0.91	1.04	0.885	0.891	0.924	0.931	0.804	0.985	1.05	0.995	1.01	1	0.973	0.89
NCI-H661						0.862	0.759	0.653	0.706	1	0.925	0.935	0.908	0.867	0.74	0.927	0.761	0.585	0.864	0.974
NCI-H1944		0.445		0.485	0.431					0.98	0.973	1.01	0.948							1.08
COR-L 105						0.804	0.734	0.563	0.456	0.604	0.634	0.701	0.468	0.695	0.699	0.823	0.823	0.725	0.7	0.626
NCI-H2009						0.894	1.04	1	0.724	0.97	1.01	0.939	0.89	0.666	1.1	0.887	0.894	0.939	0.829	0.917
NCI-H1563						0.842	0.808	0.836	0.59	0.916	0.887	0.909	0.86	0.778	0.789	0.905	0.81	0.713	0.794	0.958
NCI-H520						0.505	0.56	0.786	0.235	0.9	0.81	0.839	0.939	0.598		0.629	0.686	0.774	0.586	0.741
NCI-H1648	0.567	0.678	0.711		0.679															
NCI-H1650						0.193	0.213	0.213	0.191	0.728	0.83	0.919	1.03	0.198	0.172	0.186	0.215	0.212	0.194	0.946
A549										0.73	0.776	0.735	0.627							0.75
NCI-H522	0.892	0.874	0.894	0.643	0.795															
NCI-H358	0.524	0.491	0.548	0.509	0.414					0.576	0.562	0.542	0.512							0.509
SW 900	0.664	0.548	0.568	0.574	0.576															
NCI-H1395	0.379	0.416	0.392	0.405	0.378															
IA-LM							0.705	0.511	0.494	0.581	0.86	0.563	0.466	0.85	0.975	0.836	0.681	1.05	0.803	0.519
SK-MES-1										0.781	0.815	0.842	0.853							0.79
EBC-1						0.463	0.602	0.517	0.282	0.218	0.198	0.17	0.163	0.493	0.518	0.514	0.479	0.573	0.434	0.176
